Experimental data as given in patent US11246863B2 (ALK-ABELLÓ, INC., priority 2015, dated 2022).
Read-outs that look alike come from different tables or passages of the source.

Tests used:
[1] = Loss on drying (weight loss upon heating); assay type: physicochemical; details: solid held at 40° C. 24 hours, then 125° C. oven one hour
Method: To assess the form of ciprofloxacin samples described in the present disclosure, a comparison experiment is conducted to evaluate the sample's loss of weight upon heating. […] The conditions and results of the experiment are summarized below: Experimental Setup—Loss on Drying: • If suspension: Pipette Cipro suspension onto filter on vacuum filter flask • Transfer filter/dry powder to 40° C. oven, hold 24 hours • Transfer solid to pre-weighed aluminum pan and weigh solid • Transfer pan to 125° C. oven, hold one hour • Weigh again and determine weight loss due to 125° C.

[2] = Particle size (D90) during manufacturing process; assay type: physicochemical
Staphylococcus aureus = details: cited from earlier work
Streptococcus pneumoniae = details: cited from earlier work
Haemophilus influenzae = details: cited from earlier work
Moraxella catarrhalis = details: cited from earlier work
Pseudomonas aeruginosa = details: cited from earlier work
rats = details: oral doses up to 100 mg/kg/day; cited from earlier work

Question: What does the source list for `O=C(O)c1cn(C2CC2)c2cc(N3CCNCC3)c(F)cc2c1=O` [Sample 1]?
Answer: Weight Loss on Drying [1]: 0.1%; particle size D90 ([2]; listed as Ciprofloxacin free base anhydrous API powder): under 15 μm

Question: For `O=C(O)c1cn(C2CC2)c2cc(N3CCNCC3)c(F)cc2c1=O` [Ciprofloxacin, 1-cyclopropyl-6-fluoro-1,4-dihydro-4-oxo-7-(1-piperazinyl)-3-quinolinecarboxylic acid], which “antimicrobial activity against isolates” value (Staphylococcus aureus) is on record?
Answer: active against most isolates

Question: And the “antimicrobial activity against isolates” value (Streptococcus pneumoniae)?
Answer: active against most isolates

Question: And the “antimicrobial activity against isolates” value (Haemophilus influenzae)?
Answer: active against most isolates

Question: What about the “antimicrobial activity against isolates” value (Moraxella catarrhalis) of the same molecule?
Answer: active against most isolates

Question: What about the “antimicrobial activity against isolates” value (Pseudomonas aeruginosa) of the same molecule?
Answer: active against most isolates

Question: What about the impairment of fertility (rats) of the same molecule?
Answer: no evidence of impairment

Question: Which “Weight Loss on Drying” value [1] does the source give for `O=C(O)c1cn(C2CC2)c2cc(N3CCNCC3)c(F)cc2c1=O` [Sample 2] here?
Answer: 11.1%

Question: And the “particle size D90” value [2]?
Answer: around 60 μm
